Experimental findings from patent US20210170035A1, “METHOD OF TREATING CANCER BY TARGETING MYELOID-DERIVED SUPPRESSOR CELLS” (priority 2016, published 2021) are described below.

Assay [1] deals with F4/80+ macrophages. Put plainly: Intracellular staining of arginase on F4/80+ macrophages from 4T1 solid tumor. The assay is classed as in vivo, balb/c mice. As to conditions: tumor digestion at end of therapeutic study.
Procedure: Intracellular arginase staining: Cell surface markers for TAMs/MDSCs were labeled following procedures mentioned previously. 0.1 μL fixable viability dye eFluor® 660 was added together with antibody cocktails. After washing with PBS, cells were fixed with 4% formaldehyde in 500 μL of PBS for 15 min at 4° C. Cells were spun down to remove fixing solution. Cells were washed two times with 500 μL washing buffer containing 0.1 M glycine and 0.05% sodium azide. After being spun down a final time, cells were added 1 mL permeabilization solution containing 0.1 M glycine, 0.05% sodium azide and 0.1% triton-100. Permeabilization was performed at room temperature for 5 min. Permeabilized cells were spun down at 1500 rpm for 1 min, and the cells were washed three times with 1 mL blocking buffer containing 0.05 M glycine, 0.05% sodium azide and 0.2% gelatin. Cells were then re-suspended in 1 mL blocking buffer at 4° C. overnight to block non-specific intracellular binding. Cells were then spun down at 1500 rpm for 1 min to remove the supernatant and another 100 μL blocking buffer containing 1 μL FITC-arginase was added. Cells were kept in the dark at 4° C. overnight. After being spun down at 1500 rpm for 1 min, cells were washed with 1 mL blocking buffer and were then ready for flow cytometry analysis (BD Accuri C6™ flow cytometer). […]
For assay [2], the system named is F4/80+CD86+ : F4/80+CD206+ macrophages. Put plainly: Ratio of M1 to M2 macrophages in 4T1 solid tumor. The assay is classed as in vivo, balb/c mice. The following applies: tumor digestion at end of therapeutic study. The method, then:
The ratio of M1 to M2 macrophages (F4/80+CD86+: F4/80+CD206+) was tested in groups of untreated control, FA-TLR7 agonist, FA-PI3K inhibitor, FA-Tubulysin and combination as well as competition groups.
As described in the previous methods part, after tumor digestion at the end of therapeutic study, isolated cells were stained by F4/80 macrophage marker and M1 (CD86), M2 (CD206) markers. Macrophages in a tumor environment have been considered as a mainly M2 macrophage function, which can support tumor growth and suppress the immune response. On the other hand, M1 macrophages have been considered to be able to eliminate tumor cells and stimulate an anti-cancer immune response. Therefore, to study the M1 to M2 macrophage ratio is very important for targeting FR-β positive TAMs/MDSCs. […] Therefore, it could be concluded that by targeting FR+ TAMs/MDSCs in 4T1 solid tumor, the three classes of FA-conjugated […] are able to convert immunosuppression M2 macrophages environment to an anti-cancer M1 macrophages environment, which would contribute to the slow growth of a tumor.

Assay [3] has as its system MDSCs (CD11b+Gr1+). Put plainly: MDSCs population (CD11b+Gr1+) in 4T1 solid tumor. It is filed as in vivo, balb/c mice. As to conditions: tumor digestion at end of therapeutic study. The method, then: The MDSCs population (CD11b+Gr1+) was tested in groups of untreated control, FA-TLR7 agonist, FA-PI3K inhibitor, FA-Tubulysin and combination as well as competition groups.
As described in previous methods part, after tumor digestion at the end of therapeutic study, isolated cells were stained by MDSCs markers CD11b+Gr1+, see FIG. 26.

The test system of assay [4] is 4T1 solid tumor. The following applies: for anti-cancer effect on co-injection of 200 times more competitor (FA-PEG-NH2): competition group, same schedule; for tumor growth, therapeutic study: 10 nmol FA-TLR7 agonist, 10 nmol FA-PI3K inhibitor, 30 nmol FA-tubulysin.
Procedure: 4T1 solid tumor model: Female balb/c mice at the age of 6 to 8 weeks were kept on a folate deficient diet for 2 weeks. Before tumor implantation, fur on the left side of the mouse body was removed by an electric trimmer. 0.05 million 4T1 cells suspended in 50 μL completed RPMI 1640 medium were subcutaneously implanted near the mammary fat pad. Treatment was commenced at day 6 when the volume of tumor reached around 20 to 50 mm^3.
Treatment was continued for 2 weeks. Tumor volume was measured every day.
Treatment was conducted by i.v. injection of 100 μl of 10 nmol FA-TLR7 agonist in PBS for 5 days per week starting at day 6 after tumor implantation (subcutaneous, 0.05 million cells/mouse). Treatment was continued for 2 weeks. Competition group was conducted at the same schedule by co-injection of 200 times more competitors (FA-PEG-NH2) with 10 nmol of FA-TLR7 agonist. The total injection volume was 100 μl. Tumor volume was measured every day.
Treatment was conducted by i.v. injection of 100 μl of 30 nmol FA-tubulysin in PBS for 5 days per week starting at day 6 after tumor implantation (subcutaneous, 0.05 million cells/mouse). Treatment was continued for 2 weeks. Competition group was conducted at the same schedule by co-injection of 200 times more competitors (FA-PEG-NH2) with 30 nmol of FA-tubulysin. The total injection volume was 100 μl. Tumor volume was measured every day.
Treatment was conducted by i.v. injection of 100 μl of 10 nmol FA-PI3K inhibitor in PBS for 5 days per week starting at day 6 after tumor implantation (subcutaneous, 0.05 million cells/mouse). Treatment was continued for 2 weeks. Competition group was conducted at the same schedule by co-injection of 200 times more competitors (FA-PEG-NH2) with 10 nmol of FA-PI3K inhibitor. The total injection volume was 100 μl. Tumor volume was measured every day.
The mark [5] stands for this setting: i.v. 5 days per week for 2 weeks from day 6.

Consider `Cc1c(CN2CCN(C(=O)C(C)OC(=O)OCCSSCC(NC(=O)CCC(NC(=O)c3ccc(NCc4cnc5nc(N)[nH]c(=O)c5n4)cc3)C(=O)O)C(=O)O)CC2)sc2c(N3CCOCC3)nc(-c3cnc(N)nc3)nc12` (centres unmarked) [FA-PI3K inhibitor], for which the “arginase+F4/80+ cell population in live cells vs untreated control” value in assay [1] was “dramatically decreased”. In addition, the “M1 to M2 macrophages ratio vs untreated control” value in assay [2] was “dramatically increased”. Further, in assay [3], the “MDSCs population (CD11b+Gr1+) vs untreated control” value is on record as “no difference”. In assay [4], the “anti-cancer effect on co-injection of 200 times more competitor (FA-PEG-NH2)” value was “can be competed”. The “tumor growth, therapeutic study” value in assay [4] (setting [5]) is listed as “tumor growth was slowed down”.
Turning to `CCCCc1nc2c(N)nc3ccccc3c2n1CC(C)(C)OC(=O)OCCSSCC(NC(=O)CCC(NC(=O)c1ccc(NCc2cnc3nc(N)[nH]c(=O)c3n2)cc1)C(=O)O)C(=O)O` (centres unmarked) [FA-TLR7 agonist], the “arginase+F4/80+ cell population in live cells vs untreated control” value in assay [1] is given as “dramatically decreased”. For the same compound, the “M1 to M2 macrophages ratio vs untreated control” value in assay [2] is “dramatically increased”. For the same compound, the “MDSCs population (CD11b+Gr1+) vs untreated control” value in assay [3] is on record as “dramatically decreased MDSCs population”. The “anti-cancer effect on co-injection of 200 times more competitor (FA-PEG-NH2)” value in assay [4] is “can be competed”. The “tumor growth, therapeutic study” value in assay [4] (setting [5]) was “tumor growth was slowed down”. The “tumor growth, dose study” value in assay [4] (i.v. 5 days per week for 2 weeks from day 6, especially in groups of 5 nmol, 10 nmol and 20 nmol) is “tumor growth was slowed down”.
